Key:
Glycine max [1] = assay: Catalytic competence for soybean sterol methyl transferase (SMT) assay was determined
[2] = Compound (100 uM) and 26,27-DHC for 45 min
Glycine max [3] = assay: Catalytic rate constant was evaluated for the soybean sterol methyl transferase (SMT) action
Glycine max [4] = assay: Michaelis-Menten constant was evaluated for the soybean sterol methyl transferase (SMT) action
[5] = Compound (50 uM) and 26,27-DHC for 45 min
[6] = Ratio of kcat to kinact for the compound was determined
Glycine max [7] = assay: Maximum rate of inactivation for the soybean sterol methyl transferase (SMT) action was determined
[8] = Apparent Ki value was calculated; set-up: species or system Glycine max
Glycine max [9] = assay: Catalytic competence for sterol methyl transferase (SMT) assay was determined

Activity (Glycine max [1])	Activity [2]	k cat (Glycine max [3])	Km (Glycine max [4])	Activity [5]	Ratio [6]	K inact (Glycine max [7])	Ki [8]	Activity (Glycine max [9])	Structure (SMILES)
3e-05	–	–	–	–	–	–	–	–	C=C(CCC(C)C1CC[C@@]2(C)C3CCC4C(C)(C)C(O)CCC45CC35CCC12C)C(C)C (some centres not stated)
3e-05	33%	0.6 min⁻¹	30 µM	48%	–	–	–	–	CC(C)=CCCC(C)C1CC[C@@]2(C)C3CCC4C(C)(C)C(O)CCC45CC35CCC12C (some centres not stated)
–	–	0.018 min⁻¹	10 µM	–	0.06	0.29 min⁻¹	42 µM	3e-05	CC(CCC=C1CC1)C1CC[C@@]2(C)C3CCC4C(C)(C)C(O)CCC45CC35CCC12C (some centres not stated)

Source: ChEMBL document CHEMBL1146707, “Mechanism-based active site modification of the soybean sterol methyltransferase by 26,27-dehydrocycloartenol” (Bioorg Med Chem Lett, 2004)
